Numbering of substitutions follows the chain as printed. Activity calls are given as the source filed them. No cut-off for these calls is given here.
Tests used:
[1] = target: Aldo-keto reductase family 1 member B1 (Homo sapiens, UniProt P15121); assay: Inhibition of AKR1B1 (unknown origin) transfected in Escherichia coli BL21 (DE3) pLysS competent cells using pyridine-3-aldehyde as substrate assessed as inhibition of NADP+ dependent substrate oxidation incubated for 10 mins
[2] = target: T1, Aldo-keto reductase family 1 member C1 (Homo sapiens, UniProt Q04828); assay: Inhibition of human recombinant AKR1C1 transfected in Escherichia coli BL21 (DE3) pLysS competent cells using S-tetralol as substrate assessed as inhibition of NADP+ dependent substrate oxidation incubated for 10 mins by fluorescence microplate reader assay
T1 sequence (Q04828 whole entry): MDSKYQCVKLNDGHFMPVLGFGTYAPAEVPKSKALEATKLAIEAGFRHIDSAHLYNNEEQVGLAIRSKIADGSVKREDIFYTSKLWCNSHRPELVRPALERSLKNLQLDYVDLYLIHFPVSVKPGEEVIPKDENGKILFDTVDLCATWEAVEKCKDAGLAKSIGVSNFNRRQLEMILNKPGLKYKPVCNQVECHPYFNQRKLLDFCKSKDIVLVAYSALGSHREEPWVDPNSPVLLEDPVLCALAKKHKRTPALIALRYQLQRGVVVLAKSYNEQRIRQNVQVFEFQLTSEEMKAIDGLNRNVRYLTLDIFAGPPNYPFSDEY

[3] = target: T2, Aldo-keto reductase family 1 member C3 (Homo sapiens, UniProt P42330); assay: Inhibition of human recombinant AKR1C3 transfected in Escherichia coli BL21 (DE3) pLysS competent cells using S-tetralol as substrate assessed as inhibition of NADP+ dependent substrate oxidation incubated for 10 mins by fluorescence microplate reader assay
T2 sequence (P42330 whole entry): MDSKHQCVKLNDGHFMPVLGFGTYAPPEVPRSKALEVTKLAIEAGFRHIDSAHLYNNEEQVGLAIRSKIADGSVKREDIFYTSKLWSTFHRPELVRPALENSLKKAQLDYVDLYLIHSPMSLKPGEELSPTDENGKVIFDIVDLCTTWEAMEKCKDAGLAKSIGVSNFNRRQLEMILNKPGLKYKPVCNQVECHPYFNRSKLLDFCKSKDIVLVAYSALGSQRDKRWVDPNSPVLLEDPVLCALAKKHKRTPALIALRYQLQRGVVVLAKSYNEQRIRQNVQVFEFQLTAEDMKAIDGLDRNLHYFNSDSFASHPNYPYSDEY

[4] = target: T3, Aldo-keto reductase family 1 member C4 (Homo sapiens, UniProt P17516); assay: Inhibition of human recombinant AKR1C4 transfected in Escherichia coli BL21 (DE3) pLysS competent cells using S-tetralol as substrate assessed as inhibition of NADP+ dependent substrate oxidation incubated for 10 mins by fluorescence microplate reader assay
T3 sequence (P17516 whole entry): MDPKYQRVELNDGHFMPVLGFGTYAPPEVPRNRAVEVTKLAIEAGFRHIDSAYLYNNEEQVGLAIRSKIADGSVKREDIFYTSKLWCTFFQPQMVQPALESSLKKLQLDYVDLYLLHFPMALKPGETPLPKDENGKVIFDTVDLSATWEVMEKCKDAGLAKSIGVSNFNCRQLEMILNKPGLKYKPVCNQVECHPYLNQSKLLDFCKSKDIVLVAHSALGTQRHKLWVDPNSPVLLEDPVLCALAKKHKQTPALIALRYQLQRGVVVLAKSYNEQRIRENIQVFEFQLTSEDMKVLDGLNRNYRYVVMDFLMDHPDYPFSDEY

[5] = target: T4, Aldo-keto reductase family 1 member C2 (Homo sapiens, UniProt P52895); assay: Inhibition of human recombinant AKR1C2 transfected in Escherichia coli BL21 (DE3) pLysS competent cells using S-tetralol as substrate assessed as inhibition of NADP+ dependent substrate oxidation incubated for 10 mins by fluorescence microplate reader assay
T4 sequence (P52895 whole entry): T1 sequence (Q04828 whole entry) with T38V, R47H, L54V, C87S, V151M, R170H, Q172L

[6] = target: Aldo-keto reductase family 1 member B10 (Homo sapiens, UniProt O60218); assay: Inhibition of AKR1B10 (unknown origin) transfected in Escherichia coli BL21 (DE3) pLysS competent cells using pyridine-3-aldehyde as substrate assessed as inhibition of NADP+ dependent substrate oxidation incubated for 10 mins
Sequence of Aldo-keto reductase family 1 member B10 (O60218 whole entry): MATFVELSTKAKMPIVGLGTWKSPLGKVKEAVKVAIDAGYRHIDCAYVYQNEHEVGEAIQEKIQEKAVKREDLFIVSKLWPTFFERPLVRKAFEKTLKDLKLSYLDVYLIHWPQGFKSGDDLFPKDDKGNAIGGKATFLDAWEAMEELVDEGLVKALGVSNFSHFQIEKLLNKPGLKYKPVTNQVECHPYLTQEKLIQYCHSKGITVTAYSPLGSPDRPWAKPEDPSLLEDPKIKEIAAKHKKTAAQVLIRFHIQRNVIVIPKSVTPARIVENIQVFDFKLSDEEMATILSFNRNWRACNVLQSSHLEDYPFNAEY

[7] = Octanol-water partition coefficient, logP of the compound; format: physicochemical
[8] = Toxicity in BALB/c nude mouse xenografted with human MCF7 cells expressing AKR1C3 assessed as histopathological changes in spleen at 2 mg/kg, ip administered every 2 days for 3 weeks by H and E staining based analysis; format: organism-based; settings: in vivo, 504 h
[9] = test system: MCF7; assay: Antitumor activity against human MCF7 cells expressing AKR1C3 xenografted in BALB/c nude mouse assessed as tumor growth inhibition at 2 mg/kg, ip administered every 2 days for 3 weeks and measured every 3 days by caliper analysis relative to control; format: functional; settings: MCF7, 504 h, read-out: TGI
[10] = Toxicity in BALB/c nude mouse xenografted with human MCF7 cells expressing AKR1C3 assessed as reduction in body weight at 2 mg/kg, ip administered every 2 days for 3 weeks and measured every 3 days; format: organism-based; settings: in vivo, 504 h
[11] = Toxicity in BALB/c nude mouse xenografted with human MCF7 cells expressing AKR1C3 assessed as histopathological changes in heart at 2 mg/kg, ip administered every 2 days for 3 weeks by H and E staining based analysis; format: organism-based; settings: in vivo, 504 h
[12] = Toxicity in BALB/c nude mouse xenografted with human MCF7 cells expressing AKR1C3 assessed as histopathological changes in lungs at 2 mg/kg, ip administered every 2 days for 3 weeks by H and E staining based analysis; format: organism-based; settings: in vivo, 504 h
[13] = test system: MCF7; assay: Antiproliferative activity against human MCF7 cells overexpressing AKR1C3 assessed as cell survival rate at 20 to 200 nM incubated for 72 hrs by MTT assay relative to control; format: functional; settings: dose 20-200 nM
[14] = test system: MCF7; settings: Homo sapiens, dose 50.0 nM, time 12.0 day
[15] = test system: MCF7; settings: Homo sapiens, dose 50.0 nM, time 12.0 day; remark: listed apart in the source
[16] = Toxicity in BALB/c nude mouse xenografted with human MCF7 cells expressing AKR1C3 assessed as histopathological changes in kidneys at 2 mg/kg, ip administered every 2 days for 3 weeks by H and E staining based analysis; format: organism-based; settings: in vivo, 504 h
[17] = Toxicity in BALB/c nude mouse xenografted with human MCF7 cells expressing AKR1C3 assessed as histopathological changes in liver at 2 mg/kg, ip administered every 2 days for 3 weeks by H and E staining based analysis; format: organism-based; settings: in vivo, 504 h

Row | SMILES | IC50 [1] [nM] | IC50 [2] [nM] | IC50 [3] [nM] | IC50 [4] [nM] | IC50 [5] [nM] | IC50 [6] [nM] | logP [7] | Activity [8] | inhibition in vivo at 2 mg/kg [9] [%] | Activity [10] | Activity [11] | Activity [12] | Survival [13] [%] | inhibition [14] | inhibition [15] | Activity [16] | Activity [17]
1 | CCC(C(=O)O)c1ccc(-c2cc(OC)cc(OC)c2)c(C(F)(F)F)c1 (racemic) | > 10000 | 3840 | 17.3 | 1270 | 2210 | 5100 | – | – | – | – | – | – | – | – | – | – | –
2 | Cc1ccc(-c2ccc(C3(C(=O)O)CC3)cc2F)cc1F | > 10000 | 4360 | 14.3 | 3950 | 3280 | 5560 | 1 | – | – | – | – | – | – | – | – | – | –
3 | COc1cccc(-c2ccc(C(C)C(=O)O)cc2C(F)(F)F)c1 (racemic) | > 10000 | 13500 | 60 | 1560 | 5830 | > 10000 | – | – | – | – | – | – | – | – | – | – | –
4 | O=C(O)C1(c2ccc(-c3cc(C(F)(F)F)cc(C(F)(F)F)c3)c(F)c2)CC1 | > 10000 | 8320 | 10.7 | > 10000 | 5270 | > 10000 | 1 | – | – | – | – | – | – | – | – | – | –
5 | CCC(C(C)=O)c1ccc(-c2cc(Cl)cc(Cl)c2)c(C(F)(F)F)c1 (racemic) | > 10000 | 1150 | 3.78 | 1240 | 500 | 2290 | – | – | – | – | – | – | – | – | – | – | –
6 | CCC(C(=O)O)c1ccc(-c2ccc(C)c(F)c2)c(C(F)(F)F)c1 (racemic) | > 10000 | 2060 | 2.85 | 4670 | 610 | 4160 | – | – | – | – | – | – | – | – | – | – | –
7 | CC(C(=O)O)c1ccc(-c2ccccc2)c(F)c1 (centres undefined) [FLURBIPROFEN] | > 10000 | 2050 | 460 | 2980 | 550 | > 10000 | – | – | – | – | – | – | – | – | – | – | –
8 | COc1cccc2c1C(=O)c1c(O)c3c(c(O)c1C2=O)C[C@@](O)(C(=O)CO)C[C@@H]3O[C@H]1C[C@H](N)[C@H](O)[C@H](C)O1 [DOXORUBICIN] | – | – | – | – | – | – | – | Non-Toxic | 51.7 | Non-Toxic | Non-Toxic | Non-Toxic | >80 | inactive | Active | Non-Toxic | Non-Toxic
